Experimental findings from ChEMBL document CHEMBL2429809, “Novel peptide-doxorubucin conjugates for targeting breast cancer cells including the multidrug resistant cells” (J Med Chem, 2013) are described below.

Data set [1] concerns MDA-MB-435. Nature of the data set: Cytotoxicity against doxorubicin-resistant multidrug-resistant human MDA-MB-435 cells after 48 hrs by MTT assay in presence of verapamil. The data set is classed as functional, cell-based. The conditions noted are these: MDA-MB-435, 48 h.
In data set [2] the test system is MDA-MB-435. The data set is described as follows: Cytotoxicity against human MDA-MB-435 cells after 48 hrs by MTT assay in presence of verapamil. In kind it is functional, cell-based. The conditions noted are these: MDA-MB-435, 48 h.
Data set [3] concerns HUVEC. Nature of the data set: Cytotoxicity against human HUVEC cells after 48 hrs by MTT assay. In kind it is cell-based.
The test system of data set [4] is MCF-10A. Nature of the data set: Cytotoxicity against human MCF10A cells after 48 hrs by MTT assay. In kind it is cell-based.
Data set [5] relates to MDA-MB-435. Nature of the data set: Cytotoxicity against doxorubicin-resistant multidrug-resistant human MDA-MB-435 cells after 48 hrs by MTT assay. The data set is classed as functional, cell-based. To be noted: MDA-MB-435, 48 h.
The test system of data set [6] is MDA-MB-435. The data set is described as follows: Cytotoxicity against human MDA-MB-435 cells after 48 hrs by MTT assay. To be noted: MDA-MB-435, 48 h. The data set is classed as functional, cell-based.
Data set [7] has as its system MCF7. The data set is described as follows: Cellular uptake in human MCF7 cells at 5 uM after 2 hrs by FACS analysis in presence of NH2-WxEYAAQkFL-CONH2. The data set is classed as ADME, cell-based. The conditions noted are these: mcf7, 2 h.
Data set [8] deals with HUVEC. Nature of the data set: Cellular uptake in human HUVEC cells at 5 uM after 2 hrs by FACS analysis. The data set is classed as ADME, cell-based.
The test system of data set [9] is MDA-MB-435. Nature of the data set: Cellular uptake in doxorubicin-resistant multidrug-resistant human MDA-MB-435 cells at 5 uM after 2 hrs by FACS analysis relative to doxorubicin. To be noted: mda-mb-435, 2 h. The data set is classed as ADME, cell-based.
Data set [10] relates to MDA-MB-435. Nature of the data set: Cytotoxicity against doxorubicin-resistant multidrug-resistant human MDA-MB-435 cells after 48 hrs by MTT assay relative to doxorubicin. The data set is classed as functional.
Data set [11] deals with MDA-MB-435. Nature of the data set: Ratio of IC50 for doxorubicin-resistant multidrug-resistant human MDA-MB-435 cells to IC50 for doxorubicin-resistant multidrug-resistant human MDA-MB-435 cells in presence of verapamil. The data set is classed as functional.
Data set [12] deals with MDA-MB-435. Nature of the data set: Ratio of IC50 for human MDA-MB-435 cells to IC50 for human MDA-MB-435 cells in presence of verapamil. The data set is classed as functional.
For data set [13], the system named is MCF7. Nature of the data set: Cytotoxicity against human MCF7 cells after 48 hrs by MTT assay. The data set is classed as functional, cell-based. The conditions noted are these: MCF7, 48 h.
In data set [14] the test system is MDA-MB-435. The data set is described as follows: Cellular uptake in doxorubicin-resistant multidrug-resistant human MDA-MB-435 cells at 5 uM after 2 hrs by FACS analysis. In kind it is ADME, cell-based. The conditions noted are these: mda-mb-435, 2 h.
In data set [15] the test system is MCF-10A. The data set is described as follows: Cellular uptake in human MCF10A cells at 5 uM after 2 hrs by FACS analysis. The data set is classed as ADME, cell-based.
The test system of data set [16] is MCF7. The data set is described as follows: Cellular uptake in human MCF7 cells at 5 uM after 2 hrs by FACS analysis relative to control. The data set is classed as ADME, cell-based. The conditions noted are these: mcf7, 2 h.
Data set [17] has as its system MDA-MB-435. Nature of the data set: Cellular uptake in human MDA-MB-435 cells at 5 uM after 2 hrs by FACS analysis relative to control. In kind it is ADME, cell-based. To be noted: mda-mb-435, 2 h.
Data set [18] in a line: Half life in human serum at 100 uM after 48 hrs by RP-HPLC analysis. In kind it is ADME, cell-free.

For the compound `COc1cccc2c1C(=O)c1c(O)c3c(c(O)c1C2=O)C[C@@](O)(C(=O)CO)C[C@@H]3O[C@H]1C[C@H](N)[C@H](O)[C@H](C)O1` [DOXORUBICIN], the IC50 in data set [1] stood at 1.56 µM; in data set [2], 0.15 µM; in [3] it was 1.1 µM; in [4], 1.2 µM; in data set [5], 21.9 µM; in data set [6], 0.6 µM. For the same compound, the Drug uptake entry in data set [7] and in data set [8] was “Active” throughout.

For `CCCC[C@@H](NC(=O)[C@@H](N)Cc1c[nH]c2ccccc12)C(=O)N[C@@H](CCC(=O)O)C(=O)N[C@@H](C)C(=O)N[C@@H](C)C(=O)N[C@@H](Cc1ccc(O)cc1)C(=O)N[C@@H](CCC(N)=O)C(=O)N[C@H](CCCCNC(=O)CCCC(=O)N[C@H]1C[C@H](O[C@H]2C[C@](O)(C(=O)CO)Cc3c(O)c4c(c(O)c32)C(=O)c2c(OC)cccc2C4=O)O[C@@H](C)[C@H]1O)C(=O)N[C@@H](Cc1ccccc1)C(=O)N[C@@H](CC(C)C)C(N)=O`, the “fold change (FC)” value in data set [9] is on record as 4.7. The “Ratio IC50” value in data set [10] is greater than 4; in [11] it was 1.3; in data set [12] it was 1.3. For the same compound, the IC50 in [1] was 3.1 µM; in [2], 0.83 µM; in [3], 42.3 µM; in data set [4], 35.1 µM; in [5], 5.4 µM; in data set [6], 1.5 µM. The compound further showed a 50% inhibitory concentration (IC50) in [13] of 0.9 µM. In addition, the Drug uptake entry in data set [7], in data set [14], in data set [8], in data set [15], in [16] and in [17] was “Active” each time. Further, the half-life at 100 µM in data set [18] was 2 h.

As to `CCCC[C@@H](NC(=O)[C@@H](N)Cc1c[nH]c2ccccc12)C(=O)N[C@@H](CCC(=O)O)C(=O)N[C@@H](C)C(=O)N[C@@H](C)C(=O)N[C@@H](Cc1ccc(O)cc1)C(=O)N[C@@H](CCC(N)=O)C(=O)N[C@H](CCCCNC(=O)CCCC(=O)OCC(=O)[C@]1(O)Cc2c(O)c3c(c(O)c2[C@@H](O[C@H]2C[C@H](N)[C@H](O)[C@H](C)O2)C1)C(=O)c1c(OC)cccc1C3=O)C(=O)N[C@@H](Cc1ccccc1)C(=O)N[C@@H](CC(C)C)C(N)=O`, the “fold change (FC)” value in data set [9] is listed as 3. Also, the “Ratio IC50” value in data set [11] and in data set [12] was 1.3 each time. Moreover, the IC50 was found to be 14.4 µM in data set [1]; 15.5 µM in [2]; 50.9 µM in data set [3]; 40.5 µM in [4]; 19.7 µM in data set [5]; 18.6 µM in [6]. For the same compound, 19.1 µM corresponded to half-maximal inhibition in data set [13] (IC50). Besides, the Drug uptake entry in [7], in [8], in data set [15], in [16] and in data set [17] was “Active” in each case.
